# Test results taken from patent publication US20050277630A1, “Antibacterial agents” (priority 2003, published 2005).
# Key:
# E. faecalis MGH-2 = test: Antibacterial assay (Test A), standard microtitration, MIC; assay type: cell-based; details: Gram Positive Bacteria, strain MGH-2; for MIC: Enterococcus faecalis, MGH2
# Method: (§1) The compounds of the present invention were tested against an assortment of Gram-negative and Gram-positive organisms using standard microtitration techniques (Cohen et. al., Antimicrob., 1985; 28: 766; Heifetz, et. al., Antimicrob., 1974; 6: 124).
# S pyogenes C203 = test: as above; assay type: cell-based; details: Gram Positive Bacteria; strain C203
# Method: as §1
# S. aureus UC-76 = test: as above; assay type: cell-based; details: Gram Positive Bacteria, strain UC-76; for MIC: Staphylococcus aureus, UC76
# Method: as §1
# E. coli Tol C = test: as above; assay type: cell-based; details: for MIC: Escherichia coli, read-out: MIC E. coli Tol C; for MIC E. coli Tol C: Gram Negative Bacteria, strain Tol C
# Method: as §1
# H. influenzae HI3542 = test: as above; assay type: cell-based; details: Gram Negative Bacteria, strain HI3542; for MIC: Haemophilus influenzae
# Method: as §1
# M. catarrhalis BC3534 = test: as above; assay type: cell-based; details: strain BC3534; for MIC: Moraxella catarrhalis, BC3534, Gram Negative Bacteria; for MIC M. catarrhalis BC3534: Gram Negative Bacteria
# Method: as §1
compound,measurement,setting,value
CC(=O)NC[C@H]1CN(c2ccc3c(c2)CCSC(=CN(C)C)C3=O)C(=O)O1,melting point,,221 to 222 °C
CC(=O)NC[C@H]1CN(c2ccc3c(c2)CCSc2cn[nH]c2-3)C(=O)O1,melting point,,186 to 187 °C
CC(=O)NC[C@H]1CN(c2ccc3c(c2)CCSc2cnc(N)nc2-3)C(=O)O1,melting point,,190 to 191 °C (dec.)
CC(=O)NC[C@H]1CN(c2ccc3c(c2)CCS(=O)(=O)C(=CN(C)C)C3=O)C(=O)O1,melting point,,261 to 263 °C
CC(=O)NC[C@H]1CN(c2ccc3c(c2)CCS(=O)(=O)c2cn[nH]c2-3)C(=O)O1,melting point,,292 to 293 °C
CC(=O)NC[C@H]1CN(c2ccc3c(c2)CCS(=O)(=O)c2cnc(N)nc2-3)C(=O)O1,melting point,,211 to 213 °C (dec.)
CC(=O)NC[C@H]1CN(c2ccc3c(c2)CCS(=O)(=O)c2cnoc2-3)C(=O)O1,melting point,,211 to 212 °C
CC(=O)NC[C@H]1CN(c2ccc3c(c2)CCSCC3=O)C(=O)O1,melting point,,232 to 233 °C
CC(=O)NC[C@H]1CN(c2ccc3c(c2)CCNC(=O)N3)C(=O)O1,melting point,,177 to 178 °C
CC(=O)NC[C@H]1CN(c2ccc3c(c2)CCC(N)C(=O)N3)C(=O)O1 (stereo partly drawn),melting point,,> 160 °C (dec.)
CC(=O)NC[C@H]1CN(c2ccc3c(c2)OCCc2c(-c4ccc(F)cc4)n[nH]c2-3)C(=O)O1,MIC,E. faecalis MGH-2,1 µg/mL
same,MIC,S pyogenes C203,0.5 µg/mL
same,MIC,S. aureus UC-76,1 µg/mL
"CC(=O)NC[C@H]1CN(c2ccc3c(c2)OCCc2c(-c4ccncc4)n[nH]c2-3)C(=O)O1 [Example 22, (S)—N-[2-Oxo-3-(3-pyridin-4-yl-4,5-dihydro-1H-6-oxa-1,2-diaza-benzo[e]azulen-8-yl)-oxazolidin-5-ylmethyl]-acetamide]",MIC,E. coli Tol C,> 64 µg/mL
same,MIC,E. faecalis MGH-2,4 µg/mL
same,MIC,H. influenzae HI3542,4 µg/mL
same,MIC,M. catarrhalis BC3534,> 64 µg/mL
same,MIC,S pyogenes C203,1 µg/mL
same,MIC,S. aureus UC-76,4 µg/mL
"CC(=O)NC[C@H]1CN(c2ccc3c(c2)OCCc2cn[nH]c2-3)C(=O)O1 [Example 37, (S)—N-[3-(4,5-Dihydro-1H-6-oxa-1,2-diaza-benzo[e]azulen-8-yl)-2-oxo-oxazolidin-5-ylmethyl]-acetamide]",MIC,E. coli Tol C,> 64 µg/mL
same,MIC,E. faecalis MGH-2,2 µg/mL
same,MIC,H. influenzae HI3542,8 µg/mL
same,MIC M. catarrhalis BC3534,M. catarrhalis BC3534,4 µg/mL
same,MIC,S pyogenes C203,0.5 µg/mL
same,MIC,S. aureus UC-76,2 µg/mL
"CC(=O)NC[C@H]1CN(c2ccc3c(c2)OCCc2cnoc2-3)C(=O)O1 [Example 38, (S)—N-[3-(4,5-Dihydro-1,6-dioxa-2-aza-benzo[e]azulen-8-yl)-2-oxo-oxazolidin-5-ylmethyl]-acetamide]",MIC,E. coli Tol C,> 64 µg/mL
same,MIC,E. faecalis MGH-2,1 µg/mL
same,MIC,H. influenzae HI3542,4 µg/mL
same,MIC,S pyogenes C203,0.5 µg/mL
same,MIC,S. aureus UC-76,1 µg/mL
"CC(=O)NC[C@H]1CN(c2ccc3c(c2)OCCc2cn(C)nc2-3)C(=O)O1 [Example 39, (S)—N-[3-(2-Methyl4,5-dihydro-2H-6-oxa-1,2-diaza-benzo[e]azulen-8-yl)-2-oxo-oxazolidin-5-ylmethyl]-acetamide]",MIC,E. coli Tol C,> 64 µg/mL
same,MIC,E. faecalis MGH-2,32 µg/mL
same,MIC,H. influenzae HI3542,> 64 µg/mL
same,MIC,M. catarrhalis BC3534,> 64 µg/mL
same,MIC,S pyogenes C203,32 µg/mL
same,MIC,S. aureus UC-76,> 64 µg/mL
CC(=O)NC[C@H]1CN(c2ccc3c(c2)OCCc2cn[nH]c2-3)C(=O)O1 [drawing 124],MIC E. coli Tol C,E. coli Tol C,>64 µg/mL
same,MIC H. influenzae HI3542,H. influenzae HI3542,8 µg/mL
same,MIC M. catarrhalis BC3534,M. catarrhalis BC3534,16 µg/mL
"(S)—N-[2-Oxo-3-(2-phenethyl-4,5-dihydro-2H-6-oxa-1,2-diaza-benzo[e]azulen-8-yl)-oxazolidin-5-ylmethyl]-acetamide and (S)—N-[2-Oxo-3-(1-phenethyl-4,5-dihydro-1H-6-oxa-1,2-diaza-benzo[e]azulen-8-yl)-oxazolidin-5-ylmethyl]-acetamide [Example 42]",MIC E. coli Tol C,E. coli Tol C,>64 µg/mL
same,MIC E. faecalis MGH-2,E. faecalis MGH-2,32 µg/mL
same,MIC H. influenzae HI3542,H. influenzae HI3542,>64 µg/mL
same,MIC M. catarrhalis BC3534,M. catarrhalis BC3534,>64 µg/mL
same,MIC S pyogenes C203,S pyogenes C203,32 µg/mL
same,MIC S. aureus UC-76,S. aureus UC-76,32 µg/mL
"(S)—N-[3-(2-Benzyl-4,5-dihydro-2H-6-oxa-1,2-diaza-benzo[e]azulen-8-yl)-2-oxo-oxazolidin-5-ylmethyl]-acetamide and (S)—N-[3-(1-Benzyl-4,5-dihydro-1H-6-oxa-1,2-diaza-benzo[e]azulen-8-yl)-2-oxo-oxazolidin-5-ylmethyl]-acetamide [Example 41]",MIC E. coli Tol C,E. coli Tol C,>64 µg/mL
same,MIC E. faecalis MGH-2,E. faecalis MGH-2,>64 µg/mL
same,MIC H. influenzae HI3542,H. influenzae HI3542,>64 µg/mL
same,MIC M. catarrhalis BC3534,M. catarrhalis BC3534,>64 µg/mL
same,MIC S pyogenes C203,S pyogenes C203,32 µg/mL
same,MIC S. aureus UC-76,S. aureus UC-76,>64 µg/mL
"(S)—N-[3-(2-Ethyl-4,5-dihydro-2H-6-oxa-1,2-diaza-benzo[e]azulen-8-yl)-2-oxo-oxazolidin-5-ylmethyl]-acetamide and (S)—N-[3-(1-Ethyl-4,5-dihydro-1H-6-oxa-1,2-diaza-benzo[e]azulen-8-yl)-2-oxo-oxazolidin-5-ylmethyl]-acetamide [Example 40]",MIC E. coli Tol C,E. coli Tol C,>64 µg/mL
same,MIC E. faecalis MGH-2,E. faecalis MGH-2,>64 µg/mL
same,MIC H. influenzae HI3542,H. influenzae HI3542,>64 µg/mL
same,MIC M. catarrhalis BC3534,M. catarrhalis BC3534,>64 µg/mL
same,MIC S pyogenes C203,S pyogenes C203,32 µg/mL
same,MIC S. aureus UC-76,S. aureus UC-76,>64 µg/mL
